SMILES strings stand for the structures. Where two headings read alike, the source gives them in different places. Numbered stars: 1 amine (or outer) side, 2 acyl side, 3 side chain; on linkers, the order of the positions; unused ones are H or OH. Square brackets hold non-standard residues; d marks the D form. Peptide text beside a SMILES is read from it. dPip(4-aza,4-Cbz) = O=C(O)[C@H]1CN(C(=O)OCc2ccccc2)CCN1; X2 = O=C(OCc1ccccc1)N1CCN([*:1])[C@H](C(=O)[*:2])C1; X5 = CC(C)(C)OC(=O)CN1CCN([*:1])[C@H](C(=O)[*:2])C1; dPhe(4-NO2) = N[C@H](Cc1ccc([N+](=O)[O-])cc1)C(=O)O; dPiz(1,6-dehydro) = O=C(O)[C@H]1CCC=NN1; dNMeY = CN[C@H](Cc1ccc(O)cc1)C(=O)O; d(hPhe) = N[C@H](CCc1ccccc1)C(=O)O; NMeI = CC[C@H](C)[C@H](NC)C(=O)O; dNMeF = CN[C@H](Cc1ccccc1)C(=O)O; hPhe = N[C@@H](CCc1ccccc1)C(=O)O; Chg = N[C@H](C(=O)O)C1CCCCC1; Pip = O=C(O)[C@@H]1CCCCN1; dPip = O=C(O)[C@H]1CCCCN1; dNMeA = CN[C@H](C)C(=O)O Where only a bound is given, the exact number is not on record here.

Assay [1] addresses T1, uterine OT receptors (Rattus norvegicus, UniProt P70536).
T1 construct: from tissue; host or cells: uterus of DES-treated rats, crude membranes
T1 sequence (P70536 1-388): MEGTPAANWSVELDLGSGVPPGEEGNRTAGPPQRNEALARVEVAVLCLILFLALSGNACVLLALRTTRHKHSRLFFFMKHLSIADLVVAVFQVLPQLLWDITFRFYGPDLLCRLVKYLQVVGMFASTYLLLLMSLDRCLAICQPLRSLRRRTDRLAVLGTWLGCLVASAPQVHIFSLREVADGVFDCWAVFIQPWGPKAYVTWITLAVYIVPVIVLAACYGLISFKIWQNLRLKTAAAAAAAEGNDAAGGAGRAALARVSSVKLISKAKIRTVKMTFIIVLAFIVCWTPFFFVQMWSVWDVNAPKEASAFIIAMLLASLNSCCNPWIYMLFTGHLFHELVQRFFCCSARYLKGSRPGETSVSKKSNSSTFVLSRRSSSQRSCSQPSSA
The experiment in a line: [^3 H]OT binding to uterine OT receptors, crude membrane preparation of uteri from DES-treated rats. The note with it: for inhibition at 1 µM: @ 1,000 (nM). The protocol:
Competition studies were conducted at equilibrium (60 minutes; 22° C.) using 1 nM [^3 H]OT in the following assay buffer: 50 mM Tris-HCl, 5 mM MgCl2, and 0.1% BSA, pH 7.4.

In assay [2] the target is T2, AVP-V1 sites (Rattus norvegicus, UniProt P30560).
T2 construct: crude membrane preparation of male rat liver (AVP-V1 sites); from tissue; host or cells: male rat liver, crude membranes
The experiment in a line: [^3 H]AVP binding to crude membrane preparation of male rat liver (AVP-V1 sites). On the procedure: (§1) Nonspecific binding (5-10% of the total binding) was determined using 10 μM unlabeled AVP, and the binding reaction was terminated by filtration as described above for the [^3 H]OT binding assay.

The target in assay [3] is T3, AVP-V2 sites (Rattus norvegicus, UniProt Q00788).
T3 construct: male rat liver (AVP-V1 sites) or kidney medulla (AVP-V2 sites); from tissue; host or cells: male rat kidney medulla, crude membranes
In words: [^3 H]AVP binding to crude membrane preparation of male rat kidney medulla (AVP-V2 sites). On the procedure: as §1

Where [4] appears, read: rat uterus membranes, 1 nM [^3 H]OT, read-out: Receptor Binding Results IC50 (nM) [^3 H]OT.
Setting [5] is: Receptor Binding Results IC50 (nM) [^3 H]-AVP-V1.
Setting [6] is: rat kidney medulla membranes, 2 nM [^3 H]AVP, read-out: Receptor Binding Results IC50 (nM) [^3 H]-AVP-V2.
[7] abbreviates: 1 h, read-out: [^3 H]OT: percent inhibition of radioligand at the given concentration.
The mark [8] stands for this setting: read-out: Receptor Binding Results IC50 (nM) [^3 H]-AVP-V1.
Where [9] appears, read: read-out: Receptor Binding Results IC50 (nM) [^3 H]-AVP-V2.
Setting [10] is: Receptor Binding Results IC50 (nM) [^3 H]OT.

T3 sequence (Q00788 whole entry): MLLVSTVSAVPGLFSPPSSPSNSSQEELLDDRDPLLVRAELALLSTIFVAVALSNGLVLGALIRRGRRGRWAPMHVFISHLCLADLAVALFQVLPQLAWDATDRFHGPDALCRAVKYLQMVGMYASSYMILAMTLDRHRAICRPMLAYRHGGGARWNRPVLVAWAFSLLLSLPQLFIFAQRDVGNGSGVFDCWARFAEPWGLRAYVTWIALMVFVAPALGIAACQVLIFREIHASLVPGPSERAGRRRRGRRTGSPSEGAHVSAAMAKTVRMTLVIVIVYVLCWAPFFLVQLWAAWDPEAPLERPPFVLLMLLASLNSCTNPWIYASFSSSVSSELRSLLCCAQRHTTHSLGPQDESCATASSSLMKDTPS
T2 sequence (P30560 whole entry): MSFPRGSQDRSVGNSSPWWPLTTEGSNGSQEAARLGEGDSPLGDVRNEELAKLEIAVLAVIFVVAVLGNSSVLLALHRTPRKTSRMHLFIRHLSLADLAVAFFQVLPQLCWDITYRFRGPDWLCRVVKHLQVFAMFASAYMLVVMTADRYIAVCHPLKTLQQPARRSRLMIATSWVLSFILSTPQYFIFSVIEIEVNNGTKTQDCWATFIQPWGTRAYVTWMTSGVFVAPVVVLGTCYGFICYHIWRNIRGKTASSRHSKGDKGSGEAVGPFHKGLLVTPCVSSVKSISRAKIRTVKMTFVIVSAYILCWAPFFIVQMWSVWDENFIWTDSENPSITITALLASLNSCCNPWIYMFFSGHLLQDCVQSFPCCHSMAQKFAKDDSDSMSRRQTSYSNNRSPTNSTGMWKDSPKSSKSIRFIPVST

Regarding `CC[C@H](C)[C@@H]1NC(=O)[C@@H](Cc2c[nH]c3ccccc23)NC(=O)[C@@H]2CCCN2C(=O)[C@@H](Cc2ccccc2)N(C)C(=O)[C@@H]2CN(CC(=O)OC(C)(C)C)CCN2C(=O)[C@H]2CCCCN2C1=O` [Example 180, C-[D-Tryptophanyl-L-isoleucinyl-D-pipecolyl-L-piperazin-2-yl (4-t-butylacetyl)-D-(N^α -Me)phenylalanyl-L-prolyl]] (cyclo([dW]I[dPip][X5][dNMeF]P)), in assay [1] (setting [4]), the IC50 was found to be 150 nM. Besides, the “[^3 H]-AVP-V1: percent inhibition of radioligand at the given concentration” value in assay [2] (@ 10,000 (nM)) was 44%. In addition, the inhibition at 10 µM in assay [3] (0.5 h, @ 10,000 (nM), read-out: [^3 H]-AVP-V2: percent inhibition of radioligand at the given concentration) was 79%.

As for `O=C1N[C@@H](C2CCCCC2)C(=O)N2CCC[C@@H]2C(=O)N2CCC[C@H]2C(=O)N[C@H](Cc2ccccc2)C(=O)N2CCC[C@H]2C(=O)N[C@@H]1Cc1ccccc1` [Example 67, c-[D-Phenylalanyl-L-cyclohexylglycyl-D-prolyl-L-prolyl-D-phenylalanyl-L-prolyl]] (cyclo([dF]P[dF][Chg][dP]P)), the figures for the IC50 in assay [1] (setting [4]), in assay [2] (setting [5]) and in assay [3] (setting [6]) were 10000 nM, greater than 10000 nM and greater than 10000 nM, respectively.

With `CC[C@H](C)[C@@H]1NC(=O)[C@@H](Cc2ccccc2)NC(=O)[C@@H]2CCCN2C(=O)[C@@H](Cc2ccc([N+](=O)[O-])cc2)NC(=O)[C@@H]2CCCCN2C(=O)[C@H]2CCCCN2C1=O` [Example 47, Cyclo[D-phenylalanyl-L-isoleucyl-D-pipecolyl-L-pipecolyl-D(p-nitro)phenylalanyl-L-prolyl]] (cyclo(I[dPip][Pip][dPhe(4-NO2)]P[dF])), the IC50 in assay [1] (setting [4]) is 620 nM; in assay [2] (setting [5]), greater than 1000 nM; in assay [3] (setting [6]), 10000 nM.

As to `CC[C@H](C)[C@@H]1NC(=O)[C@@H](C)N(C)C(=O)[C@@H]2CCCN2C(=O)[C@@H](Cc2ccccc2)N(C)C(=O)[C@@H]2CCCCN2C(=O)[C@H]2CCCCN2C1=O` [Example 167, c-[N-Me-D-Alanyl-L-isoleucyl-D-pipecolyl-L-pipecolyl-N-Me-D-phenylalanyl-L-prolyl]] (cyclo(I[dPip][Pip][dNMeF]P[dNMeA])), in assay [1] (setting [7]), the inhibition at 1 µM came to 5%. Moreover, the IC50 in assay [2] (setting [5]) and in assay [3] (setting [6]) was greater than 10000 nM throughout.

As for `CC[C@H](C)[C@@H]1NC(=O)[C@@H](Cc2c[nH]c3ccccc23)NC(=O)[C@@H]2CCCN2C(=O)[C@@H](Cc2ccc(O)cc2)N(C)C(=O)[C@@H]2CCCCN2C(=O)[C@H]2CCCCN2C1=O` [Example 137, c-[D-Tryptophanyl-L-isoleucyl-D-pipecolyl-L-pipecolyl-D-(N-methyl)tyrosyl-L-prolyl]] (cyclo(I[dPip][Pip][dNMeY]P[dW])), the half-inhibitory concentration (IC50) in assay [1] (setting [4]) was found to be 7.9 nM; in assay [2] (setting [8]), 9300 nM; in assay [3] (setting [9]), 245 nM.

As for `CN1C(=O)[C@@H]2CCCCN2C(=O)[C@H]2CCCCN2C(=O)[C@H](CCc2ccccc2)NC(=O)[C@@H](Cc2c[nH]c3ccccc23)NC(=O)[C@@H]2CCCN2C(=O)[C@H]1Cc1ccccc1` [Example 133, c-[D-Tryptophanyl-L-homophenylalanyl-D-pipecolyl-L-pipecolyl-D-(N-methyl)phenylalanyl-prolyl]] (cyclo(P[dW][hPhe][dPip][Pip][dNMeF])), the IC50 is 3600 nM in assay [1] (setting [4]), 10000 nM in assay [2] (setting [5]) and 10000 nM in assay [3] (setting [6]).

For `CC[C@H](C)[C@@H]1NC(=O)[C@@H](Cc2ccccc2)NC(=O)[C@@H]2CCCN2C(=O)[C@@H](C)N(C)C(=O)[C@@H]2CCCCN2C(=O)[C@H]2CCCCN2C1=O` [Example 5, Cyclo[D-phenyalanyl-L-isoleucyl-D-pipecolyl-L-pipecolyl-D-(N^α methyl)alanyl-L-prolyl]] (cyclo(I[dPip][Pip][dNMeA]P[dF])), the results for the IC50 in assay [1] (setting [10]), in assay [2] (setting [5]) and in assay [3] (setting [6]) were 930 nM, greater than 10000 nM and greater than 10000 nM, respectively.

For `CC[C@H](C)[C@@H]1NC(=O)[C@@H](Cc2ccccc2)NC(=O)[C@@H]2CCCN2C(=O)[C@@H](Cc2c[nH]cn2)NC(=O)[C@@H]2CN(C(=O)OCc3ccccc3)CCN2C(=O)[C@H]2CCCCN2C1=O` [Example 81, c-[D-Phenylalanyl-L-isoleucinyl-D-pipecolyl-L-piperazin-2yl(4Cbz)-D-histidinyl-L-prolyl]] (cyclo(I[dPip][X2][dH]P[dF])), the IC50 in assay [1] (setting [4]) is 77 nM; in assay [2] (setting [5]), greater than 1000 nM; in assay [3] (Receptor Binding Results IC50 (nM) [^3 H]-AVP-V2) it was greater than 1000 nM.

In the case of `CC[C@H](C)[C@@H]1NC(=O)C(Cc2c[nH]c3ccc(F)cc23)NC(=O)[C@@H]2CCCN2C(=O)[C@@H](Cc2c[nH]cn2)NC(=O)[C@@H]2CCCCN2C(=O)[C@H]2CCCCN2C1=O` (single isomer, unassigned) [157 lower Rf], the inhibition at 1 µM in assay [1] (setting [7]) amounted to 6%. In addition, the IC50 came to 13000 nM in assay [2] (setting [8]) and 26000 nM in assay [3] (setting [9]).

As to `CC[C@H](C)[C@@H]1NC(=O)[C@@H](Cc2c[nH]c3ccccc23)NC(=O)[C@@H]2CCCN2C(=O)[C@@H](Cc2c[nH]c3ccccc23)NC(=O)[C@@H]2CN(CC(=O)OC(C)(C)C)CCN2C(=O)[C@H]2CCCCN2C1=O` [Example 162, c-[D-Tryptophanyl-L-isoleucinyl-D-pipecolyl-L-piperazin-2-yl(4-t-butylacetyl)-D-tryptophanyl-L-prolyl]] (cyclo([dW]I[dPip][X5][dW]P)), in assay [1] (1 h, @ 100 (nM), read-out: [^3 H]OT: percent inhibition of radioligand at the given concentration), the inhibition at 0.1 µM stood at 54%. The IC50 in assay [2] (setting [5]) is greater than 10000 nM; in assay [3] (setting [6]), 10000 nM.

For the compound `CC[C@H](C)[C@@H]1NC(=O)[C@@H](Cc2ccccc2)NC(=O)[C@@H]2CCCN2C(=O)[C@@H](Cc2ccccc2)NC(=O)[C@@H]2CN(C(=O)OCc3ccccc3)CCN2C(=O)[C@H]2CN(C(=O)OCc3ccccc3)CCN2C1=O` [Example 79, c-[D-Phenylalanyl-L-isoleucinyl-D-piperazin-2-yl (4-Cbz)-L-piperazin-2-yl (4-Cbz)-D-phenylalanyl-L-prolyl]] (cyclo(I[dPip(4-aza,4-Cbz)][X2][dF]P[dF])), the IC50 in assay [1] (setting [4]) is 1700 nM; in assay [2] (setting [5]), greater than 10000 nM; in assay [3] (setting [6]), 10000 nM.

As to `CC[C@H](C)[C@H]1C(=O)N2CCCC[C@@H]2C(=O)N2CCCC[C@H]2C(=O)N(C)[C@H](Cc2ccccc2)C(=O)N2CCC[C@H]2C(=O)N[C@H](Cc2ccccc2)C(=O)N1C` [Example 105, c-[D-Phenylalanyl-N-methyl-L-isoleucyl-D-pipecolyl-L-pipecolyl-N-methyl-D-phenylalanyl-L-prolyl]] (cyclo([NMeI][dPip][Pip][dNMeF]P[dF])), the IC50 in assay [1] (setting [4]), in assay [2] (setting [5]) and in assay [3] (setting [6]) was greater than 10000 nM throughout.

Turning to `CC[C@H](C)[C@@H]1NC(=O)[C@@H](Cc2c[nH]c3ccccc23)NC(=O)[C@@H]2CCCN2C(=O)[C@@H](Cc2cnc[nH]2)NC(=O)[C@@H]2CCCCN2C(=O)[C@H]2CCC=NN2C1=O` [Example 184, c-[D-Tryptophanyl-L-isoleucinyl-D-Δ-piperazyl-L-pipecolyl-D-histidyl-L-prolyl]] (cyclo(I[dPiz(1,6-dehydro)][Pip][dH]P[dW])), the IC50 in assay [1] (setting [10]) came out at 6 nM; in assay [2] (setting [8]), 3980 nM; in assay [3] (setting [6]) it was 1050 nM.

With `CC[C@H](C)[C@@H]1NC(=O)[C@@H](Cc2ccccc2)NC(=O)[C@@H]2CCCN2C(=O)C(Cc2cccnc2)NC(=O)[C@@H]2CCCCN2C(=O)[C@H]2CCCCN2C1=O` (single isomer, unassigned) [Example 10 (isomer 1), Cyclo[D-Phe-L-Ile-D-Pip-L-Pip-D,L-3-PyrAla-L-Pro]], the IC50 is 1000 nM in assay [1] (setting [4]), greater than 10000 nM in assay [2] (setting [5]) and greater than 10000 nM in assay [3] (setting [6]).

For `CC[C@H](C)[C@@H]1NC(=O)[C@@H](CCc2ccccc2)NC(=O)[C@@H]2CCCN2C(=O)[C@@H](Cc2ccccc2)N(C)C(=O)[C@@H]2CCCCN2C(=O)[C@H]2CCCCN2C1=O` [Example 165, c-[D-Homophenylalanyl-L-isoleucyl-D-pipecolyl-L-pipecolyl-N-Me-D-phenylalanyl-L-prolyl]] (cyclo(I[dPip][Pip][dNMeF]P[d(hPhe)])), the values for the IC50 in assay [1] (setting [4]), in assay [2] (setting [8]) and in assay [3] (setting [9]) were 150 nM, 6600 nM and 2600 nM, respectively.

As for `CCOc1ccc(C[C@H]2NC(=O)[C@@H]3CCCN3C(=O)[C@@H](Cc3ccccc3)NC(=O)[C@H](CC(N)=O)NC(=O)[C@@H]([C@H](C)O)NC(=O)[C@H]([C@@H](C)CC)NC2=O)cc1` [Example 99] (cyclo([dY](Et)I[dT]N[dF]P)), the concentration for half-maximal inhibition (IC50) in assay [1] (setting [4]), in assay [2] (setting [5]) and in assay [3] (setting [6]) was greater than 10000 nM each time.
